Test results: PMC2747657 (Bioorganic & medicinal chemistry, 2009)
Read-outs that look alike come from different tables or passages of the source.

Legend:
NET [1] = target: T1, NET (Rattus norvegicus, UniProt Q63380); experiment: Inhibition of [3H]nisoxetine binding at the NET
5-HTT = 5-HTT (Rattus norvegicus, UniProt P31652); experiment: Inhibition of [3H]paroxetine binding at the 5-HTT; conditions: for Ki: 5-HTT, Ki [3H]paroxetine; for NET/5-HTT Ratio: ratio of Ki values of NET/5-HTT, selectivity for the 5-HTT relative to the NET
DAT = DAT (Rattus norvegicus, UniProt P23977); experiment: Inhibition of [3H]WIN35,428 binding at the DAT
NET [2] = target: T1, NET; conditions: read-out: NET, Ki [3H]nisoxetine; inhibition of [3H]nisoxetine binding; cited from earlier work
[3] = relative to N-methyl compound 7a

Chain of 5-HTT (P31652 whole entry): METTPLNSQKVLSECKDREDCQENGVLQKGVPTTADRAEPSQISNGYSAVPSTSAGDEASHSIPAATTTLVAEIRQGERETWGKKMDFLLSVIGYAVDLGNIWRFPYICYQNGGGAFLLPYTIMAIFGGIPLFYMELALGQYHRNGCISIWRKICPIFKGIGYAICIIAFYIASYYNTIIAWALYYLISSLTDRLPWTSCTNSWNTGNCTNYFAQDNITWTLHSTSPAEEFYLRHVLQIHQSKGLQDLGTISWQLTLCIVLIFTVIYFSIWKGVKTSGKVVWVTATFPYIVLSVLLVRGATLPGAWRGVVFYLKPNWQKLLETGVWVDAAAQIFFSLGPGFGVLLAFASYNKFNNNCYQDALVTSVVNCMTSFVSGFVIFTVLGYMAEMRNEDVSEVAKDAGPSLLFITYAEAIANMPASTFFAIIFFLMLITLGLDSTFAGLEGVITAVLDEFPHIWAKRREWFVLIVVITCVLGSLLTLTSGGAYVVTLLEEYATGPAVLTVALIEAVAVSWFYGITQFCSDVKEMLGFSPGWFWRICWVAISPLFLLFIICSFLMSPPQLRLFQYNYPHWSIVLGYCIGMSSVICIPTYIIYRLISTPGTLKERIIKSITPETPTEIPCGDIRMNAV
T1 sequence (Q63380 1-617): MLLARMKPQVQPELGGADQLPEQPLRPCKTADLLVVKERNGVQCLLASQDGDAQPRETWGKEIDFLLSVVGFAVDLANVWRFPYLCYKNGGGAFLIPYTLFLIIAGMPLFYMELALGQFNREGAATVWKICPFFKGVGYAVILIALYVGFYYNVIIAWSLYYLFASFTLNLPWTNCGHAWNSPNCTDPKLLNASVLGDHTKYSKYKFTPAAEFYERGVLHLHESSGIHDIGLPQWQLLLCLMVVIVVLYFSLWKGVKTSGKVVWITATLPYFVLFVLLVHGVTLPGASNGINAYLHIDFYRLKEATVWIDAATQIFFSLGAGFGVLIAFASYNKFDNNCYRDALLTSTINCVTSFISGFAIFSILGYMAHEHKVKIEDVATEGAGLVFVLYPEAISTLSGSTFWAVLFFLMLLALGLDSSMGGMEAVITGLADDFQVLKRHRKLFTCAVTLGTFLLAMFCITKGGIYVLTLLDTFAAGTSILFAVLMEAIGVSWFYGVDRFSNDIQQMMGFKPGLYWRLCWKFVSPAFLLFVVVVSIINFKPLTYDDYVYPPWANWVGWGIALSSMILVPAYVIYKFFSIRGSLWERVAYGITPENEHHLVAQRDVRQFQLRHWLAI
Chain of DAT (P23977 whole entry): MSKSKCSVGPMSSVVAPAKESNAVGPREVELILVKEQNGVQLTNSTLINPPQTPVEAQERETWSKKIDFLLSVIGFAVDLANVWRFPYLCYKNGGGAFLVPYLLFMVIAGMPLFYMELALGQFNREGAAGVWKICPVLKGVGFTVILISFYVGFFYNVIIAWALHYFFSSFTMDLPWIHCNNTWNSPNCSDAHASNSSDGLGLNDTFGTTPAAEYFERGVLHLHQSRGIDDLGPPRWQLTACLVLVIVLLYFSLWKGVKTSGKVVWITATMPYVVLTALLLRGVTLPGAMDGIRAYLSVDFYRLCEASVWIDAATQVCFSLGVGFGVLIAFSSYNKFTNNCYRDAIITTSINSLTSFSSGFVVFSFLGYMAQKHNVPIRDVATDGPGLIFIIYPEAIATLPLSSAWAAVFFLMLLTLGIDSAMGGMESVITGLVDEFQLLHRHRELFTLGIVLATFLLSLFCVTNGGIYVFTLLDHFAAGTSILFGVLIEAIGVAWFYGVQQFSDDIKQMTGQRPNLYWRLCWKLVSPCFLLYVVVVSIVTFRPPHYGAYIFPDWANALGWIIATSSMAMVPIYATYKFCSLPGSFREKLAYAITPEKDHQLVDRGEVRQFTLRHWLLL

Row | SMILES | Ki (NET [1]) [nM] | Ki (5-HTT) [nM] | other results
1 | COC(=O)[C@H]1[C@@H](c2ccc(SC)cc2)C[C@@H]2CC[C@H]1N2C [7a, 3β-(4-Methylthiophenyl)tropane-2β-carboxylic acid methyl ester] | 220 ± 10 | 220 | NET/5-HTT Ratio (5-HTT): 314-364
2 | CCSc1ccc([C@H]2C[C@@H]3CC[C@H]([C@H]2C(=O)OC)N3C)cc1 [7b, 3β-(4-Ethylthiophenyl)tropane-2β-carboxylic acid methyl ester] | 1170 ± 300 | 4.5 ± 0.5 | –
3 | COC(=O)[C@H]1[C@@H](c2ccc(SC(C)C)cc2)C[C@@H]2CC[C@H]1N2C [7c, 3β-(4-Isopropylthiophenyl)tropane-2β-carboxylic acid methyl ester] | 129 ± 2 | 129 | –
4 | COC(=O)[C@H]1[C@@H](c2ccc(SC(F)(F)F)cc2)C[C@@H]2CC[C@H]1N2C [7d, 3β-(4-Trifluoromethylthiophenyl)tropane-2β-carboxylic acid methyl ester] | 1900 ± 300 | – | –
5 | COC(=O)[C@H]1[C@@H](c2ccc(SC)c(Br)c2)C[C@@H]2CC[C@H]1N2C [7e, 3β-(3-Bromo-4-methylthiophenyl)tropane-2β-carboxylic acid methyl ester] | 121 ± 12 | – | –
6 | COC(=O)[C@H]1[C@@H](c2ccc([S+](C)[O-])c(Br)c2)C[C@@H]2CC[C@H]1N2C (stereo partly drawn) [7f, 3β-(3-bromo-4-methylsulfinylphenyl)tropane-2β-carboxylic acid methyl ester] | 690 ± 80 | – | –
7 | COC(=O)[C@H]1[C@@H](c2ccc([S+](C)[O-])cc2)C[C@@H]2CC[C@H]1N2C (stereo partly drawn) [7g, 3β-(4-methylsulfinylphenyl)tropane-2β-carboxylic acid methyl ester] | 515 ± 60 | 4.3 ± 0.6 | –
8 | COC(=O)[C@H]1[C@@H](c2ccc(S(C)(=O)=O)cc2)C[C@@H]2CC[C@H]1N2C [7h, 3β-(4-Methylsulfonylphenyl)tropane-2β-carboxylic acid methyl ester] | > 10000 | 208 ± 45 | IC50 (DAT): > 10000 nM
9 | COC(=O)[C@@H]1C2CCC(C[C@@H]1c1ccc(SC)cc1)N2 (stereo partly drawn) [8a, 3β-(4-Methylthiophenyl)nortropane-2β-carboxylic acid methyl ester] | – | – | fold less affinity at the DAT (DAT; [3]): 3 fold; fold increase in affinity at the NET (NET [1]; [3]): ~10 fold; fold increase in affinity at the 5-HTT (5-HTT; [3]): approximately 4 fold
10 | COC(=O)[C@@H]1C2CCC(C[C@@H]1c1ccc(SC)cc1)N2CCCF (stereo partly drawn) [9a, 3β-(4-Methylthiophenyl)-8-(3-fluoropropyl)nortropane-2β-carboxylic acid methyl ester] | – | – | NET/5-HTT Ratio (5-HTT): 314-364
11 | C=CCN1C2CCC1[C@@H](C(=O)OC)[C@@H](c1ccc(SC)cc1)C2 (stereo partly drawn) [10a, 3β-(4-Methylthiophenyl)-8-allylnortropane-2β-carboxylic acid methyl ester] | – | – | NET/5-HTT Ratio (5-HTT): 314-364
12 | COC(=O)[C@H]1[C@@H](c2ccc(OC)cc2)C[C@@H]2CC[C@H]1N2C [compound 5, 3β-(4-methoxyphenyl)tropane-2β-carboxylic acid methyl ester] | – | – | Ki (NET [2]): 1110 ± 64 nM
